IC50 data for 41 compounds are collected here from US20260167656A1, “PHOSPHORAMIDATE COMPOUNDS AND USES THEREOF” (ALLORION THERAPEUTICS INC, priority 2022, published 2026).

The subject of assay [1] is non-small cell lung cancer cell line H460. Briefly: In vitro human cancer cell line cytotoxicity (proliferation) assay in H460, CellTiter-Glo, 72 hours. In kind it is cell-based. The note with it: DMSO condition (no AKR1C3 inhibitor), read-out: CTG H460: Avg IC50 (nM) [Assay Condition: DMSO]. As for the experimental part:
Biological Example 1. In Vitro Human Cancer Cell Line Cytotoxicity Assay
IC50 values in nanomolar reported here were derived from in vitro proliferation assay data in non-small cell lung cancer cell line H460.
(§1) Specifically, exponentially growing cells were seeded at density of 3×10^3 cells per well in 96-well plate and incubated at 37° C. in 5% CO2, 95% air and 100% relative humidity for 24 hours before adding compounds. Compounds were solubilized in 100% DMSO at 10 mM. Compounds were added to the plate using Tecan D300e® digital Dispenser. After drug addition, the plates were incubated for an additional 72 hours at 37° C. in 5% CO2, 95% air and 100% relative humidity. At the end of the incubation, cell viability was quantified with CellTiter-Glo® assay.

For assay [2] the test system is unchanged. Briefly: H460 proliferation assay in the presence of 3 uM ASP9521 (AKR1C3 specific inhibitor). The class given is cell-based, human. Conditions: H460 cells, CellTiter-Glo, 72 hours, in the presence of 3 uM ASP9521 added 4 hours prior to compounds; read-out: CTG H460: Avg IC50 (nM) [Assay Condition: ASP9521]. Here is the method:
as §1
To further confirm that compounds were activated by human AKR1C3, H460 proliferation assay were also performed in the presence of 3 uM […], an AKR1C3 specific inhibitor. ASP9521 were added to the plates 4 hours prior to the addition of compounds.
On the technique in general: Cellular ATP, detected with luciferase, serves as a proxy for viable cell number.

Setting [3] is: Homo sapiens, NCI-H460, 72 h, H460 cells.
Where [4] appears, read: Homo sapiens, NCI-H460, H460 cells.

For the compound `O=[N+]([O-])c1ccc2c(c1Oc1ccc(F)c(OCC3CC3)c1)CC[C@H]2OP(=O)(N1CC1)N1CC1` [Example 488], the half-maximal inhibitory concentration (IC50) in assay [1] (setting [3]) was below 10 nM; in assay [2], 857 nM.
The like results for `O=C1COCCN1c1cccc(Oc2c([N+](=O)[O-])ccc3c2CCC3OP(=O)(N2CC2)N2CC2)c1` (stereo not shown) [Example 109] were, in that order, 10 to 50 nM and 6450 nM.
For `O=C1COCCN1c1cccc(Oc2c([N+](=O)[O-])ccc3c2CCC3OP(=O)(N2CC2)N2CC2)c1` (stereo not shown) [Example 110], the values for the half-maximal inhibitory concentration (IC50) in assay [1] (H460 cells) and in assay [2] were below 10 nM and 2420 nM, respectively.
As for `O=[N+]([O-])c1ccc2c(c1Oc1cccc(OCC(F)(F)F)c1)CCC2OP(=O)(N1CC1)N1CC1` (racemic) [Example 473], the IC50 in assay [1] (H460 cells) is below 10 nM; in assay [2], 329 nM.
The like results for `O=[N+]([O-])c1cc2c(cc1Oc1ccc(-c3ccc(Cl)cc3)cc1)C(OP(=O)(N1CC1)N1CC1)CC2` (stereo not shown) [Example 182] were, in that order, at least 100 nM and above 10000 nM.
In the case of `O=[N+]([O-])c1cc2oc(COP(=O)(N3CC3)N3CC3)cc2cc1Oc1ccc(-c2cccnc2)cc1` [Example 540], the IC50 in assay [1] (setting [3]) is below 10 nM; in assay [2], 1830 nM.
In the case of `CC(C)COc1cccc(Oc2c([N+](=O)[O-])ccc3c2CCC3OP(=O)(N2CC2)N2CC2)c1` (stereo not shown) [Example 485], the IC50 is below 10 nM in assay [1] (H460 cells) and 1150 nM in assay [2].
Turning to `O=[N+]([O-])c1ccc2c(c1Oc1ccc(-c3ccc(Cl)cc3)cc1)CCC2OP(=O)(N1CC1)N1CC1` (stereo not shown) [Example 45], the IC50 in assay [1] (H460 cells) is 10 to 50 nM; in assay [2], 5550 nM.
Turning to `O=[N+]([O-])c1ccc2c(c1Oc1ccc(F)c(OCC(F)(F)F)c1)CC[C@@H]2OP(=O)(N1CC1)N1CC1` [Example 494], the IC50 was below 10 nM in assay [1] (setting [3]) and 160 nM in assay [2].
For the compound `CC(OP(=O)(N1C[C@H]1C)N1C[C@H]1C)c1ccc([N+](=O)[O-])c(Oc2ccc(-c3ccccc3)cc2)c1` (stereo partly shown) [Example 220], the concentration for half-maximal inhibition (IC50) is below 10 nM in assay [1] (H460 cells) and 5050 nM in assay [2].
For `Cc1nccc(-c2ccc(Oc3c([N+](=O)[O-])ccc4c3CC[C@H]4OP(=O)(N3CC3)N3CC3)cc2)n1` [Example 286], the IC50 in assay [1] (H460 cells) was below 10 nM; in assay [2] it was 1870 nM.
On to `Cn1ccc2cc(Oc3c([N+](=O)[O-])ccc4c3CCC4OP(=O)(N3CC3)N3CC3)ccc21` (stereo not shown) [Example 384], for which the IC50 is below 10 nM in assay [1] (setting [3]) and 1490 nM in assay [2].
As to `Cn1ccc2ccc(Oc3cc4c(cc3[N+](=O)[O-])CCC4OP(=O)(N3CC3)N3CC3)cc2c1=O` (stereo not shown) [Example 157], the half-inhibitory concentration (IC50) in assay [1] (H460 cells) is 10 to 50 nM; in assay [2] it was 1240 nM.
With `CSc1ccc(Oc2c([N+](=O)[O-])ccc3c2CC[C@@H]3OP(=O)(N2CC2)N2CC2)cc1` [Example 466], the IC50 was below 10 nM in assay [1] (H460 cells) and 975 nM in assay [2].
Take `CN(C)C(=O)c1cc(Oc2c([N+](=O)[O-])ccc3c2CCC3OP(=O)(N2CC2)N2CC2)ccn1` (racemic) [Example 253]: the figures for the 50% inhibitory concentration (IC50) in assay [1] (H460 cells) and in assay [2] were below 10 nM and 697 nM, respectively.
For `O=[N+]([O-])c1ccc2c(c1Oc1cccc(OC3CCCC3)c1)CC[C@H]2OP(=O)(N1CC1)N1CC1` [Example 470] the same measures were below 10 nM and 1150 nM.
For the compound `O=[N+]([O-])c1ccc2c(c1Oc1ccc(-c3ccncc3)cc1)CCC2OP(=O)(N1CC1)N1CC1` (stereo not shown) [Example 63], the values for the 50% inhibitory concentration (IC50) in assay [1] (H460 cells) and in assay [2] were 10 to 50 nM and 7430 nM, respectively.
For `C[C@H](OP(=O)(N1CC1)N1CC1)c1cc2cc(Oc3cccc(C(=O)N4CCC(F)(F)CC4)c3)c([N+](=O)[O-])cc2o1` [Example 563] the same measures were below 10 nM and 2110 nM.
As for `O=C(c1cccc(Oc2c([N+](=O)[O-])ccc3c2CCC3OP(=O)(N2CC2)N2CC2)c1)N1C[C@H]2CC[C@@H](C1)O2` (stereo partly shown) [Example 250], the IC50 was below 10 nM in assay [1] (H460 cells) and 1220 nM in assay [2].
Regarding `Cc1cccc(-c2cccc(Oc3c([N+](=O)[O-])ccc4c3CCC4OP(=O)(N3CC3)N3CC3)c2)n1` (stereo not shown) [Example 321], the half-inhibitory concentration (IC50) is 10 to 50 nM in assay [1] (H460 cells) and 6690 nM in assay [2].
As for `CCc1nsc(-c2cccc(Oc3c([N+](=O)[O-])ccc4c3CC[C@@H]4OP(=O)(N3CC3)N3CC3)c2)n1` [Example 368], the half-maximal inhibitory concentration (IC50) in assay [1] (setting [3]) is 10 to 50 nM; in assay [2] it was 3360 nM.
On to `COc1ccc(Oc2c([N+](=O)[O-])ccc3c2CC[C@@H]3OP(=O)(N2CC2)N2CC2)cc1OCC1CC1` [Example 502], for which the values for the IC50 in assay [1] (setting [3]) and in assay [2] were below 10 nM and 546 nM, respectively.
As to `COc1ccc(Oc2c([N+](=O)[O-])ccc3c2CCC3OP(=O)(N2CC2)N2CC2)cc1-c1ccc(F)cn1` (stereo not shown) [Example 339], the IC50 in assay [1] (H460 cells) is below 10 nM; in assay [2] it was 1360 nM.
In the case of `O=[N+]([O-])c1cc2c(cc1Oc1ccc(-c3ccncc3)cc1)C(OP(=O)(N1CC1)N1CC1)CC2` (stereo not shown) [Example 198], the IC50 in assay [1] (setting [3]) was below 10 nM; in assay [2], 2230 nM.
Regarding `O=C(NC1CC1)c1cccc(Oc2c([N+](=O)[O-])ccc3c2CCC3OP(=O)(N2CC2)N2CC2)c1` (stereo not shown) [Example 234], the half-inhibitory concentration (IC50) is below 10 nM in assay [1] (setting [3]) and 865 nM in assay [2].
In the case of `O=[N+]([O-])c1ccc2c(c1Oc1cncc(C3CC3)c1)CCC2OP(=O)(N1CC1)N1CC1` (racemic) [Example 315], the results for the IC50 in assay [1] (H460 cells) and in assay [2] were below 10 nM and 679 nM, respectively.
On to `Cn1cc(-c2ccc(Oc3c([N+](=O)[O-])ccc4c3CCC4OP(=O)(N3CC3)N3CC3)cc2)cn1` (single isomer, unassigned) [Example 59], for which the half-maximal inhibitory concentration (IC50) is below 10 nM in assay [1] (H460 cells) and 1360 nM in assay [2].
The like results for `CN(C(=O)c1cccc(Oc2c([N+](=O)[O-])ccc3c2CC[C@@H]3OP(=O)(N2CC2)N2CC2)c1)c1cnn(C)c1` [Example 254] were, in that order, below 10 nM and 786 nM.
As for `CN1Cc2cc(Oc3c([N+](=O)[O-])ccc4c3CCC4OP(=O)(N3CC3)N3CC3)ccc2C1=O` (single isomer, unassigned) [Example 42], the IC50 is below 10 nM in assay [1] (setting [3]) and 123 nM in assay [2].
As for `Cc1nsc(-c2cccc(Oc3c([N+](=O)[O-])ccc4c3CC[C@@H]4OP(=O)(N3CC3)N3CC3)c2)n1` [Example 292, (S)-4-(3-(3-methyl-1,2,4-thiadiazol-5-yl)phenoxy)-5-nitro-2,3-dihydro-1H-inden-1-yl di(aziridin-1-yl)phosphinate], the half-inhibitory concentration (IC50) in assay [1] (setting [4]) was below 10 nM; in assay [2], 1810 nM.
Regarding `Cn1ccc2cc(Oc3c([N+](=O)[O-])ccc4c3CCC4OP(=O)(N3CC3)N3CC3)ccc2c1=O` (stereo not shown) [Example 381], the IC50 in assay [1] (setting [3]) was below 10 nM; in assay [2] it was 312 nM.
For `O=C1c2ccc(Oc3c([N+](=O)[O-])ccc4c3CC[C@@H]4OP(=O)(N3CC3)N3CC3)cc2CN1C1CC1` [Example 379] the same measures were below 10 nM and 447 nM.
With `O=[N+]([O-])c1ccc2c(c1Oc1cccc(OC3COC3)c1)CC[C@H]2OP(=O)(N1CC1)N1CC1` [Example 468], the IC50 in assay [1] (H460 cells) is below 10 nM; in assay [2] it was 660 nM.
Turning to `O=[N+]([O-])c1ccc2c(c1Oc1ccc(F)c(-c3ccccn3)c1)CC[C@@H]2OP(=O)(N1CC1)N1CC1` [Example 337], the half-inhibitory concentration (IC50) in assay [1] (H460 cells) is 10 to 50 nM; in assay [2], 5800 nM.
With `Cc1ccnc(-c2ccc(Oc3c([N+](=O)[O-])ccc4c3CC[C@@H]4OP(=O)(N3CC3)N3CC3)cc2F)n1` [Example 267, (S)-4-(3-fluoro-4-(4-methylpyrimidin-2-yl)phenoxy)-5-nitro-2,3-dihydro-1H-inden-1-yl di(aziridin-1-yl)phosphinate], the results for the IC50 in assay [1] (setting [3]) and in assay [2] were below 10 nM and 639 nM, respectively.
`Cn1cnc2cc(Oc3c([N+](=O)[O-])ccc4c3CC[C@H]4OP(=O)(N3CC3)N3CC3)ccc21` [Example 397]: the IC50 is below 10 nM in assay [1] (setting [4]) and 956 nM in assay [2].
Regarding `O=[N+]([O-])c1ccc2c(c1Oc1cccc(OC3COC3)c1)CCC2OP(=O)(N1CC1)N1CC1` (racemic) [Example 465], the 50% inhibitory concentration (IC50) is below 10 nM in assay [1] (H460 cells) and 705 nM in assay [2].
The like results for `CC(OP(=O)(N1CC1)N1CC1)c1cc2cc(Oc3cccc(C(=O)N4CCC4)c3)c([N+](=O)[O-])cc2o1` (stereo not shown) [Example 549] were, in that order, 10 to 50 nM and 5130 nM.
The like results for `O=[N+]([O-])c1cc2c(cc1Oc1ccc(-c3ccccc3)nc1)C(OP(=O)(N1CC1)N1CC1)CC2` (stereo not shown) [Example 193] were, in that order, below 10 nM and 880 nM.
As to `O=[N+]([O-])c1ccc2c(c1Oc1ccc(F)c(-c3ncccn3)c1)CC[C@@H]2OP(=O)(N1CC1)N1CC1` [Example 327], the concentration for half-maximal inhibition (IC50) in assay [1] (setting [3]) is below 10 nM; in assay [2], 1710 nM.
The like results for `O=[N+]([O-])c1cc2oc(COP(=O)(N3CC3)N3CC3)cc2cc1Oc1ccc(-c2ccccc2)cc1` [Example 230, (5-([1,1′-biphenyl]-4-yloxy)-6-nitrobenzofuran-2-yl)methyl di(aziridin-1-yl)phosphinate] were, in that order, below 10 nM and 846 nM.

The term IC50 denotes the concentration at which inhibition is half-maximal.
